Measurements taken from patent US20250154686A1, “COMPOUND LIBRARY” (CHUGAI SEIYAKU KABUSHIKI KAISHA, priority 2021, published 2025).

Biological target: T1, Bcl-2 protein (Recombinant Human Bcl-2 Protein) (Homo sapiens, UniProt P10415)
T1 construct: purchased Novus Biologicals NBP2-34889
Test: AS-MS evaluation of binding of the Example 4 mixture library (1200 compounds/well) to Bcl-2, ASMS ratio (%)
Settings: AS-MS, Example 4 mixture library; for ASMS ratio (%) n = 1: Bcl-2, replicate n = 1; for ASMS ratio (%) n = 2: Bcl-2, replicate n = 2
In short: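 Binding is read as an ASMS ratio from reverse-phase LC/MS peak data. Samples: 1200 compounds at 20 nM each with 20 μM Bcl-2, 1 h at 23 °C in the dark, then P-2 SEC and organic-solvent extraction; references lacked protein, with and without SEC.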

T1 sequence (P10415 whole entry): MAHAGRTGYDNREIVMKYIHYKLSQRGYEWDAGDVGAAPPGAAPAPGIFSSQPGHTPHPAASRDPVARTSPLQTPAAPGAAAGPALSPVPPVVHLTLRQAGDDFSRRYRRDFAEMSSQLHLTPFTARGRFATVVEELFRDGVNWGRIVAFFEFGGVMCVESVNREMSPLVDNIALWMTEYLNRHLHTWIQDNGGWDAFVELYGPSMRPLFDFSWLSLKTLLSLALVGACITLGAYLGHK

ASMS ratio (%) n = 1 [%] | ASMS ratio (%) n = 2 [%] | SMILES
0.0 | −1.2 | CCOc1cncc(-c2ccccc2CN2CCN(c3ccc(C(=O)NS(=O)(=O)CCC(F)(F)F)cc3)CC2)c1 [Compound B2N046-01, 4-[4-[[2-(5-Ethoxypyridin-3-yl)phenyl]methyl]piperazin-1-yl]-N-(3,3,3-trifluoropropylsulfonyl)benzamide]
0.0 | 0.0 | CCOc1cccc(-c2ccc(CN3CCN(c4ccc(C(=O)NS(=O)(=O)CCC(F)(F)F)cc4)CC3)cc2C)c1 [Compound B2N047-01, 4-[4-[[4-(3-Ethoxyphenyl)-3-methylphenyl]methyl]piperazin-1-yl]-N-(3,3,3-trifluoropropylsulfonyl)benzamide]
0.0 | −0.7 | CCOc1cncc(-c2ccc(CN3CCN(c4ccc(C(=O)NS(=O)(=O)CCC(F)(F)F)cc4)CC3)cc2C)c1 [Compound B2N048-01, 4-[4-[[4-(5-Ethoxypyridin-3-yl)-3-methylphenyl]methyl]piperazin-1-yl]-N-(3,3,3-trifluoropropylsulfonyl)benzamide]
0.0 | 0.0 | CCOc1cccc(-c2ccc(CN3CCN(c4ccc(C(=O)NS(=O)(=O)CCC(F)(F)F)cc4)CC3)c(CC)c2)c1 [Compound B2N049-01, 4-[4-[[4-(3-Ethoxyphenyl)-2-ethylphenyl]methyl]piperazin-1-yl]-N-(3,3,3-trifluoropropylsulfonyl)benzamide]
0.0 |  | CCOc1cncc(-c2ccc(CN3CCN(c4ccc(C(=O)NS(=O)(=O)CCC(F)(F)F)cc4)CC3)c(CC)c2)c1 [Compound B2N050-01]
0.0 | 0.0 | CCOc1cccc(-c2ccc(CN3CCN(c4ccc(C(=O)NS(=O)(=O)CCC(F)(F)F)cc4)CC3)cc2F)c1 [Compound B2N051-01, 4-[4-[[4-(3-Ethoxyphenyl)-3-fluorophenyl]methyl]piperazin-1-yl]-N-(3,3,3-trifluoropropylsulfonyl)benzamide]
0.0 | −0.5 | CCOc1cncc(-c2ccc(CN3CCN(c4ccc(C(=O)NS(=O)(=O)CCC(F)(F)F)cc4)CC3)cc2F)c1 [Compound B2N052-01]
0.0 | 1.4 | CCOc1cccc(-c2ccc(CN3CCN(c4ccc(C(=O)NS(=O)(=O)CCC(F)(F)F)cc4)CC3)c(OC)c2)c1 [Compound B2N053-01, 4-[4-[[4-(3-Ethoxyphenyl)-2-methoxyphenyl]methyl]piperazin-1-yl]-N-(3,3,3-trifluoropropylsulfonyl)benzamide]
0.0 | 0.0 | CCOc1cncc(-c2ccc(CN3CCN(c4ccc(C(=O)NS(=O)(=O)CCC(F)(F)F)cc4)CC3)c(OC)c2)c1 [Compound B2N054-01, 4-[4-[[4-(5-Ethoxypyridin-3-yl)-2-methoxyphenyl]methyl]piperazin-1-yl]-N-(3,3,3-trifluoropropylsulfonyl)benzamide]
0.0 | 0.0 | CCOc1cccc(-c2cc(CN3CCN(c4ccc(C(=O)NS(=O)(=O)CCC(F)(F)F)cc4)CC3)cc(OCC)c2)c1 [Compound B2N055-01]
0.0 | 0.0 | CCOc1cncc(-c2cc(CN3CCN(c4ccc(C(=O)NS(=O)(=O)CCC(F)(F)F)cc4)CC3)cc(OCC)c2)c1 [Compound B2N056-01, 4-[4-[[3-Ethoxy-5-(5-ethoxypyridin-3-yl)phenyl]methyl]piperazin-1-yl]-N-(3,3,3-trifluoropropylsulfonyl)benzamide]
0.0 | −1.8 | CCOc1cccc(-c2cc(CN3CCN(c4ccc(C(=O)NS(=O)(=O)CCC(F)(F)F)cc4)CC3)cc(OC(C)C)c2)c1 [Compound B2N057-01, 4-[4-[[3-(3-Ethoxyphenyl)-5-propan-2-yloxyphenyl]methyl]piperazin-1-yl]-N-(3,3,3-trifluoropropylsulfonyl)benzamide]
